The results in this text go back to patent publication US12559506B2, “Indazole based compounds and associated methods of use” (Arvinas Operations, Inc., priority 2021, dated 2026).

Each structure is given as a SMILES string. Like-named read-outs stand apart in the source and are kept apart here. Some results are limits rather than exact numbers.

In one experiment the target is T1, G2019S LRRK2 (Homo sapiens, UniProt Q5S007, G2019S).
T1 construct: expressed in transfected cells; host or cells: HEK293 (ATCC CRL-1573), transient transfection, mammalian expression vector with ubiquitin promoter
T1 sequence (Q5S007 whole entry G2019S): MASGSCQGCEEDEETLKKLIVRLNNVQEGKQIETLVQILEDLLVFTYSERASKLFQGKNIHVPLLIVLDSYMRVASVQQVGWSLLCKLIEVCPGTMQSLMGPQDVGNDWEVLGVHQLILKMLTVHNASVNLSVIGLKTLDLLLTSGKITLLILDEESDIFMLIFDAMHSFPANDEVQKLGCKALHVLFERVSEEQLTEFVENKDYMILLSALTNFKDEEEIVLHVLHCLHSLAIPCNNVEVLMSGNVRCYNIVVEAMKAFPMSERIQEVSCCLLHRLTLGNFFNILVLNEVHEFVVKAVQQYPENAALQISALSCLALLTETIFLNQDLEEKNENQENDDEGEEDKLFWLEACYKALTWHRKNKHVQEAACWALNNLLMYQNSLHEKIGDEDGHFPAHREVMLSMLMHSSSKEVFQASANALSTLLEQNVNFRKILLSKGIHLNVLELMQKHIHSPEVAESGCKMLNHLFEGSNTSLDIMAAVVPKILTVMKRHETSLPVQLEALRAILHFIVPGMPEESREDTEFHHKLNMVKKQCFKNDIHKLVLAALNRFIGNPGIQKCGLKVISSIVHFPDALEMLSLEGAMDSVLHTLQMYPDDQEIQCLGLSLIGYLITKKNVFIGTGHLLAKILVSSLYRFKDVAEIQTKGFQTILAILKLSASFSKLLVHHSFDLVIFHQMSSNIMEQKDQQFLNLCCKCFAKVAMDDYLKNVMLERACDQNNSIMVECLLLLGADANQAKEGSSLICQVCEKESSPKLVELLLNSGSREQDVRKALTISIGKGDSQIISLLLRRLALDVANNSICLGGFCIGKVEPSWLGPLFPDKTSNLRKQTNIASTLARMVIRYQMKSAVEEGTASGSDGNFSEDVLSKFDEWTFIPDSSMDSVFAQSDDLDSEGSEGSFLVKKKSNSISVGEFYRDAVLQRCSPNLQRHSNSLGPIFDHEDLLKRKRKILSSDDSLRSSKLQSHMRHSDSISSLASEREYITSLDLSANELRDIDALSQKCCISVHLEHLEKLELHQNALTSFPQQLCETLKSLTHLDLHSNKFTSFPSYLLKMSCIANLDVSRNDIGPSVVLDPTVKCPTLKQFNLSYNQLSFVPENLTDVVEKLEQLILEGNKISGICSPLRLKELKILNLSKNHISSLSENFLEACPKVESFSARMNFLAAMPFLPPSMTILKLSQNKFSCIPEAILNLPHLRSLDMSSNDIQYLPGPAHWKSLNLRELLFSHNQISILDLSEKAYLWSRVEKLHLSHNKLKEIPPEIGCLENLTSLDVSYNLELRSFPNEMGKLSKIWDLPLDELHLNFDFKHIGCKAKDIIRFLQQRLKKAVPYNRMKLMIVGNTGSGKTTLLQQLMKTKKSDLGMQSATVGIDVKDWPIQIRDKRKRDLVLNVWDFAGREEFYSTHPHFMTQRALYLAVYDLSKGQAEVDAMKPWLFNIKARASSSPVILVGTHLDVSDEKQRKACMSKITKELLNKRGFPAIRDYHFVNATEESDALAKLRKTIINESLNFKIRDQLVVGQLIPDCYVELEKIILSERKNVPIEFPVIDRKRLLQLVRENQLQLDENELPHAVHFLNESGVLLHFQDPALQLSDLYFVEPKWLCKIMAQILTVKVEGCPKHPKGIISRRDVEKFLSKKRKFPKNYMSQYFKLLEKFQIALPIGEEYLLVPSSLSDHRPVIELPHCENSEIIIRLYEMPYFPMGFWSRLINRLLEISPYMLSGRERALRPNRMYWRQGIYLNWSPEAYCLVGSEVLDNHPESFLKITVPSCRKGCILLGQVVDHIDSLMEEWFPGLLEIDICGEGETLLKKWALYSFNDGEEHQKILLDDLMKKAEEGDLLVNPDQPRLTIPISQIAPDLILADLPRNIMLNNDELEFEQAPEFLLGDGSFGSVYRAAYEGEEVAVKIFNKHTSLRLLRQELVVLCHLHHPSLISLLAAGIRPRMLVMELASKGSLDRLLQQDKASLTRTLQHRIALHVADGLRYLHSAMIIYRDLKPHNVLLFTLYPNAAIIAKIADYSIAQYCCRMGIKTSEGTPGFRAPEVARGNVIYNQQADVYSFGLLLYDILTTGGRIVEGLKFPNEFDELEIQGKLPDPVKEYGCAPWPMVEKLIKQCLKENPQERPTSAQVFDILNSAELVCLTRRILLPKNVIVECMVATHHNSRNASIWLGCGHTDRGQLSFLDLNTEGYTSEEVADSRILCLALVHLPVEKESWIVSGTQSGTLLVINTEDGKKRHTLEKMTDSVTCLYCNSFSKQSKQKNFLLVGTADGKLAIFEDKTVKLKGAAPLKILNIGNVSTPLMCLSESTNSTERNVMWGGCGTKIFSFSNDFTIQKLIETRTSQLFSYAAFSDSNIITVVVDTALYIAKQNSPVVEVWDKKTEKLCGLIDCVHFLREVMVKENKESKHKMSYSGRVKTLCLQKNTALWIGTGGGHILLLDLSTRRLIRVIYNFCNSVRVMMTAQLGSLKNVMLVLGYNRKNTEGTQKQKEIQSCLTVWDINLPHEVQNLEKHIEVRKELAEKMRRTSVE
Briefly: LRRK2 degradation assay, HiBit-tagged G2019S LRRK2 expressed from plasmid in HEK293 cells (Nano-Glo Dual-Luciferase). In kind it is cell-based. The following applies: 24 hours. In a few lines:
(§1)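 HEK293 cells co-transfected with C-terminal HiBiT-tagged LRRK2 (WT or G2019S, ubiquitin promoter) and firefly luciferase, then dosed 24 h at 37 °C. HiBiT/firefly ratio normalized to DMSO median; DC50 and Dmax from per-plate curve fits, six replicates over two days.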

Another experiment deals with T2, wildtype LRRK2 (Homo sapiens, UniProt Q5S007).
T2 construct: expressed in transfected cells; host or cells: HEK293 (ATCC CRL-1573), transient transfection, mammalian expression vector with ubiquitin promoter
T2 sequence (Q5S007 whole entry): as the sequence (Q5S007 whole entry G2019S) above, with S2019G counted along it
In words: LRRK2 degradation assay, HiBit-tagged wildtype LRRK2 expressed from plasmid in HEK293 cells (Nano-Glo Dual-Luciferase). Type of experiment: cell-based. The following applies: 24 hours; for Dmax: read-out: **WT Dmax (%); for DC50: read-out: *WT DC50. A digest of the protocol:
as §1

Where [1] appears, read: HiBit-tagged G2019S LRRK2 in HEK293 cells.
Setting [2] is: HiBit-tagged wildtype LRRK2 in HEK293 cells.
The mark [3] stands for this setting: HiBit-tagged G2019S LRRK2, HEK293 cells.
[4] abbreviates: HiBit-tagged wildtype LRRK2, HEK293 cells.

On G2019S LRRK2 (setting [1]), `CC1(Oc2ccc3[nH]nc(-c4ccnc(N5CCN(CC6(F)CCN(C(=O)C7CCN(c8ccc9c(c8)C(=O)N(C8CCC(=O)NC8=O)C9=O)CC7)CC6)CC5)c4)c3c2)CC1` (centres unmarked) [Compound 97, 2-(2,6-dioxo-3-piperidyl)-5-[4-[4-fluoro-4-[[4-[4-[5-(1-methylcyclopropoxy)-1H-indazol-3-yl]-2-pyridyl]piperazin-1-yl]methyl]piperidine-1-carbonyl]-1-piperidyl]isoindoline-1,3-dione] returned a DC50 of less than 10 nM and a Dmax of less than 50%. Besides, at wildtype LRRK2 (setting [2]), the Dmax is 50 to 70% and the 50% degradation concentration (DC50) is less than 10 nM.

On G2019S LRRK2 (setting [1]), `CC1(Oc2ccc3[nH]nc(-c4cc(N5CCC(CN6CCC(F)(CN7CCN(c8ccc9c(c8)C(=O)N(C8CCC(=O)NC8=O)C9=O)CC7)CC6)CC5)ncn4)c3c2)CC1` (centres unmarked) [Compound 83, 2-(2,6-dioxo-3-piperidyl)-5-[4-[[4-fluoro-1-[[1-[6-[5-(1-methylcyclopropoxy)-1H-indazol-3-yl]pyrimidin-4-yl]-4-piperidyl]methyl]-4-piperidyl]methyl]piperazin-1-yl]isoindoline-1,3-dione] displayed a DC50 of less than 10 nM and a maximal degradation (Dmax) not below 70%. In addition, on wildtype LRRK2 (setting [2]), the Dmax lay within 50 to 70% and the DC50 is less than 10 nM.

`CC1(Oc2ccc3[nH]nc(-c4cc(N5CC(CN6CCN(CC7CCN(c8ccc9c(c8)C(=O)N(C8CCC(=O)NC8=O)C9=O)CC7)CC6)C5)ncn4)c3c2)CC1` (centres unmarked) [Compound 129, 2-(2,6-dioxo-3-piperidyl)-5-[4-[[4-[[1-[6-[5-(1-methylcyclopropoxy)-1H-indazol-3-yl]pyrimidin-4-yl]azetidin-3-yl]methyl]piperazin-1-yl]methyl]-1-piperidyl]isoindoline-1,3-dione]: the 50% degradation concentration (DC50) at G2019S LRRK2 (setting [1]) and at wildtype LRRK2 (setting [2]) was less than 10 nM each time. In addition, the Dmax on G2019S LRRK2 (setting [1]) and at wildtype LRRK2 (setting [2]) was not below 70% in each case.

At G2019S LRRK2 (setting [1]), `CC1(Oc2ccc3[nH]nc(-c4ccnc(N5CCC(CN6CCN(CC7CCN(c8ccc9c(c8)C(=O)N(C8CCC(=O)NC8=O)C9=O)CC7)CC6)CC5)c4)c3c2)CC1` (centres unmarked) [Compound 78, 2-(2,6-dioxo-3-piperidyl)-5-[4-[[4-[[1-[4-[5-(1-methylcyclopropoxy)-1H-indazol-3-yl]-2-pyridyl]-4-piperidyl]methyl]piperazin-1-yl]methyl]-1-piperidyl]isoindoline-1,3-dione] had a DC50 of less than 10 nM and a maximal degradation (Dmax) of 50 to 70%. Also, on wildtype LRRK2 (setting [2]), the maximal degradation (Dmax) is 50 to 70% and the DC50 is less than 10 nM.

For `CC1(Oc2ccc3[nH]nc(-c4ccnc(N5CCC(CN6CCC(F)(CN7CCN(c8ccc9c(c8)C(=O)N(C8CCC(=O)NC8=O)C9=O)CC7)CC6)CC5)c4)c3c2)CC1` (centres unmarked) [Compound 82, 2-(2,6-dioxo-3-piperidyl)-5-[4-[[4-fluoro-1-[[1-[4-[5-(1-methylcyclopropoxy)-1H-indazol-3-yl]-2-pyridyl]-4-piperidyl]methyl]-4-piperidyl]methyl]piperazin-1-yl]isoindoline-1,3-dione], at G2019S LRRK2 (setting [1]), the 50% degradation concentration (DC50) lay within 10 to 50 nM and the Dmax is 50 to 70%. Also, on wildtype LRRK2 (setting [2]), the Dmax fell in the range of 50 to 70% and the half-maximal degradation concentration (DC50) was in the range of 10 to 50 nM.

`CC1(Oc2ccc3[nH]nc(-c4cc(N5CCC(O[C@H]6C[C@H](OC7CCN(c8ccc9c(c8)C(=O)N(C8CCC(=O)NC8=O)C9=O)CC7)C6)CC5)ncn4)c3c2)CC1` (some centres unmarked) [Compound 126, 2-(2,6-dioxo-3-piperidyl)-5-[4-[3-[[1-[6-[5-(1-methylcyclopropoxy)-1H-indazol-3-yl]pyrimidin-4-yl]-4-piperidyl]oxy]cyclobutoxy]-1-piperidyl]isoindoline-1,3-dione]: the DC50 on G2019S LRRK2 (setting [1]) and on wildtype LRRK2 (setting [2]) was 10 to 50 nM in each case. The maximal degradation (Dmax) on G2019S LRRK2 (setting [1]) and on wildtype LRRK2 (setting [2]) was less than 50% throughout.

Regarding `CC1(Oc2ccc3[nH]nc(-c4cc(N5CCN(CC6(F)CCN(CC7CCN(c8ccc9c(c8)CN(C8CCC(=O)NC8=O)C9=O)CC7)CC6)CC5)ncn4)c3c2)CC1` (centres unmarked) [Compound 110, 3-[5-[4-[[4-fluoro-4-[[4-[6-[5-(1-methylcyclopropoxy)-1H-indazol-3-yl]pyrimidin-4-yl]piperazin-1-yl]methyl]-1-piperidyl]methyl]-1-piperidyl]-1-oxo-isoindolin-2-yl]piperidine-2,6-dione], the DC50 at G2019S LRRK2 (setting [1]) and at wildtype LRRK2 (setting [2]) was less than 10 nM each time. Also, the Dmax on G2019S LRRK2 (setting [1]) and at wildtype LRRK2 (setting [2]) was 50 to 70% each time.

With `CC1(Oc2ccc3[nH]nc(-c4cc(N5CC(CC6CCN(CC7CCN(c8ccc9c(c8)C(=O)N(C8CCC(=O)NC8=O)C9=O)CC7)CC6)C5)ncn4)c3c2)CC1` (centres unmarked) [Compound 164, 2-(2,6-dioxo-3-piperidyl)-5-[4-[[4-[[1-[6-[5-(1-methylcyclopropoxy)-1H-indazol-3-yl]pyrimidin-4-yl]azetidin-3-yl]methyl]-1-piperidyl]methyl]-1-piperidyl]isoindoline-1,3-dione], the DC50 on G2019S LRRK2 (setting [3]) and on wildtype LRRK2 (setting [4]) was less than 10 nM in each case. The Dmax at G2019S LRRK2 (setting [3]) was not below 70%; at wildtype LRRK2 (setting [4]), 50 to 70%.

At G2019S LRRK2 (setting [3]), `C[C@H]1CN(c2cc(-c3n[nH]c4ccc(OC5(C)CC5)cc34)ncn2)CCN1CC1CCN(CCC2CCN(c3ccc4c(c3)C(=O)N(C3CCC(=O)NC3=O)C4=O)CC2)CC1` (stereo partly drawn) [Compound 159, 2-(2,6-dioxo-3-piperidyl)-5-[4-[2-[4-[[(2S)-2-methyl-4-[6-[5-(1-methylcyclopropoxy)-1H-indazol-3-yl]pyrimidin-4-yl]piperazin-1-yl]methyl]-1-piperidyl]ethyl]-1-piperidyl]isoindoline-1,3-dione] registered a DC50 of less than 10 nM and a Dmax of 50 to 70%. For the same compound, at wildtype LRRK2 (setting [4]), the maximal degradation (Dmax) was less than 50% and the DC50 is less than 10 nM.

At G2019S LRRK2 (setting [3]), `CC1(Oc2ccc3n[nH]c(-c4cc(N5CCC(Cc6ccc(CC7CCN(c8ccc9c(c8)C(=O)N(C8CCC(=O)NC8=O)C9=O)CC7)cc6)CC5)ncn4)c3c2)CC1` (centres unmarked) [Compound 171, 2-(2,6-dioxo-3-piperidyl)-5-[4-[[4-[[1-[6-[5-(1-methylcyclopropoxy)-2H-indazol-3-yl]pyrimidin-4-yl]-4-piperidyl]methyl]phenyl]methyl]-1-piperidyl]isoindoline-1,3-dione] displayed a DC50 not below 100 nM and a Dmax of less than 50%. For the same compound, at wildtype LRRK2 (setting [4]), the DC50 was not below 100 nM.

`CC1(Oc2ccc3[nH]nc(-c4cc(N5CCC(O[C@H]6CCN(CC7CCN(c8ccc9c(c8)C(=O)N(C8CCC(=O)NC8=O)C9=O)CC7)C6)CC5)ncn4)c3c2)CC1` (stereo partly drawn) [Compound 117, 2-(2,6-dioxopiperidin-3-yl)-5-(4-{[(3S)-3-[(1-{6-[5-(1-methylcyclopropoxy)-1H-indazol-3-yl]pyrimidin-4-yl}piperidin-4-yl)oxy]pyrrolidin-1-yl]methyl}piperidin-1-yl)-2,3-dihydro-1H-isoindole-1,3-dione]: the DC50 on G2019S LRRK2 (setting [1]) and on wildtype LRRK2 (setting [2]) was less than 10 nM in each case. The Dmax at G2019S LRRK2 (setting [1]) and on wildtype LRRK2 (setting [2]) was less than 50% throughout.

At G2019S LRRK2 (setting [1]), `CC1(Oc2ccc3[nH]nc(-c4cc(N5CCC(C(=O)N6CCC(CC7CCN(c8ccc9c(c8)C(=O)N(C8CCC(=O)NC8=O)C9=O)CC7)CC6)CC5)ncn4)c3c2)CC1` (centres unmarked) [Compound 88, 2-(2,6-dioxo-3-piperidyl)-5-[4-[[1-[1-[6-[5-(1-methylcyclopropoxy)-1H-indazol-3-yl]pyrimidin-4-yl]piperidine-4-carbonyl]-4-piperidyl]methyl]-1-piperidyl]isoindoline-1,3-dione] returned a half-maximal degradation concentration (DC50) of 10 to 50 nM and a Dmax of 50 to 70%. In addition, on wildtype LRRK2 (setting [2]), the Dmax is less than 50% and the DC50 lay in the range of 10 to 50 nM.

Take `CC1(Oc2ccc3[nH]nc(-c4cc(N5CCO[C@H](CN6CCC(OC7CCN(c8ccc9c(c8)C(=O)N(C8CCC(=O)NC8=O)C9=O)CC7)CC6)C5)ncn4)c3c2)CC1` (stereo partly drawn) [Compound 150, 2-(2,6-dioxopiperidin-3-yl)-5-{4-[(1-{[(2R)-4-{6-[5-(1-methylcyclopropoxy)-1H-indazol-3-yl]pyrimidin-4-yl}morpholin-2-yl]methyl}piperidin-4-yl)oxy]piperidin-1-yl}-2,3-dihydro-1H-isoindole-1,3-dione]: on G2019S LRRK2 (setting [1]), the 50% degradation concentration (DC50) was less than 10 nM and the Dmax was in the range of 50 to 70%. Also, at wildtype LRRK2 (setting [2]), the Dmax is 50 to 70% and the 50% degradation concentration (DC50) is less than 10 nM.

On G2019S LRRK2 (setting [1]), `CC1(Oc2ccc3n[nH]c(-c4cc(N5CCC(CN6CCN(CC7CCN(c8cccc9c8CN(C8CCC(=O)NC8=O)C9=O)CC7)CC6)CC5)ncn4)c3c2)CC1` (centres unmarked) [Compound 147, 3-[4-[4-[[4-[[1-[6-[5-(1-methylcyclopropoxy)-2H-indazol-3-yl]pyrimidin-4-yl]-4-piperidyl]methyl]piperazin-1-yl]methyl]-1-piperidyl]-1-oxo-isoindolin-2-yl]piperidine-2,6-dione] displayed a DC50 of less than 10 nM and a Dmax not below 70%. Further, at wildtype LRRK2 (setting [2]), the Dmax was not below 70% and the half-maximal degradation concentration (DC50) was less than 10 nM.

As for `CC1(Oc2ccc3[nH]nc(-c4cc(N5CCN(CC(F)(F)C6CCN(CC7CCN(c8cccc9c8C(=O)N(C8CCC(=O)NC8=O)C9=O)CC7)CC6)CC5)ncn4)c3c2)CC1` (centres unmarked) [Compound 148, 4-[4-[[4-[1,1-difluoro-2-[4-[6-[5-(1-methylcyclopropoxy)-1H-indazol-3-yl]pyrimidin-4-yl]piperazin-1-yl]ethyl]-1-piperidyl]methyl]-1-piperidyl]-2-(2,6-dioxo-3-piperidyl)isoindoline-1,3-dione], on G2019S LRRK2 (setting [1]), the DC50 fell in the range of 10 to 50 nM and the maximal degradation (Dmax) was in the range of 50 to 70%. At wildtype LRRK2 (setting [2]), the Dmax is less than 50% and the DC50 was 10 to 50 nM.
